Values of other authors, collected in patent US20040171664A1, “Compositions of cyclooxygenase-2 selective inhibitors and selective serotonin reuptake inhibitors for the treatment or prevention of a vaso-occlusive event” (Pharmacia Corporation, priority 2002, published 2004).

Assays:
[1] = tested on: coronary intimal proliferation; settings: oral administration, swine model of restenosis
[2] = tested on: vascular smooth muscle cells; settings: in vitro
[3] = both depressed and nondepressed patients
[4] = single dose intravenous pretreatment before coronary stenting
platelet activation = settings: Pollock et al. 2000
restenosis = settings: orally administered, stent implanted pig arteries

CN(C)CCCO[C@@H]1[C@H]2OC(C)(C)O[C@H]2O[C@@H]1[C@H](O)CO.Cl [aniprilose hydrochloride]
coronary intimal proliferation [1]: did not prevent

COc1cc(/C=C/C(=O)CC(=O)/C=C/c2ccc(O)c(OC)c2)ccc1O [curcumin]
proliferation of vascular smooth muscle cells [2]: reduced

CNCCC(Oc1ccc(C(F)(F)F)cc1)c1ccccc1 (stereo not shown) [fluoxetine]
survival of stroke patients [3]: increased the survival

C[C@H]1C[C@@H]2[C@H]([C@@H](O)C[C@@]3(C)[C@H]2CC[C@]3(O)C(=O)CO)[C@@]2(C)C=CC(=O)C=C12 [methylpridnisolone]
change in minimal lumen diameter at 6 months [4]: no effect

CNCCC=C1c2ccccc2CCc2ccccc21 [nortriptyline]
survival of stroke patients [3]: increased the survival

CN[C@H]1CC[C@@H](c2ccc(Cl)c(Cl)c2)c2ccccc21 [sertraline]
preventing platelet activation (platelet activation): particularly effective

COc1ccc(C=CC(=O)Nc2ccccc2C(=O)O)cc1OC [tranilast, N-(3,4-dimethoxycinnamoyl) anthranilic acid]
rate of restenosis (restenosis): lower rate
